Where two headings read alike, the source gives them in different places. Positions of bridges follow the written chain, without caps; N, C: chain ends. Non-standard residues stand in square brackets, D forms with d. Residues, ends and D or L forms follow the SMILES beside them.
Method: In order to stabilize the compound toward such decomposition it was treated in aqueous solution with 10-40 mole % of N-ethylmaleimide, a reagent which will react with free sulfhydryl groups that could catalyze disulfide interchange. The excess N-ethyl maleimide was separated by passage through a column of Sephadex° G-25 gel (superfine) eluted with 50% acetic acid.

## C[C@@H](O)[C@@H]1NC(=O)[C@H](CCCCN)NC(=O)[C@@H](Cc2c[nH]c3ccccc23)NC(=O)[C@H](Cc2ccccc2)NC(=O)[C@@H]2CSSC[C@H](NC1=O)C(=O)N2 [Example 6] (cyclo(CCF[dW]KT); disulfide 1-2)
After treatment in aqueous solution with 10-40 mole % of N-ethylmaleimide and reisolation
  stability with respect to polymerization: completely stable
Sample as isolated, in certain solvents or on extended storage
  stability with respect to polymerization: unstable with respect to polymerization

From patent EP0113029B1, “Dicyclic hexapeptides, processes for their preparation and pharmaceutical compositions containing them” (Merck & Co., Inc., priority 1982, dated 1989)
